How the values were obtained:
[1] = molecular target: T1, Stromelysin-1 (Homo sapiens, UniProt P08254); assay: In vitro inhibition of human recombinant stromelysin-1.
Target sequence in this assay (P08254 whole entry): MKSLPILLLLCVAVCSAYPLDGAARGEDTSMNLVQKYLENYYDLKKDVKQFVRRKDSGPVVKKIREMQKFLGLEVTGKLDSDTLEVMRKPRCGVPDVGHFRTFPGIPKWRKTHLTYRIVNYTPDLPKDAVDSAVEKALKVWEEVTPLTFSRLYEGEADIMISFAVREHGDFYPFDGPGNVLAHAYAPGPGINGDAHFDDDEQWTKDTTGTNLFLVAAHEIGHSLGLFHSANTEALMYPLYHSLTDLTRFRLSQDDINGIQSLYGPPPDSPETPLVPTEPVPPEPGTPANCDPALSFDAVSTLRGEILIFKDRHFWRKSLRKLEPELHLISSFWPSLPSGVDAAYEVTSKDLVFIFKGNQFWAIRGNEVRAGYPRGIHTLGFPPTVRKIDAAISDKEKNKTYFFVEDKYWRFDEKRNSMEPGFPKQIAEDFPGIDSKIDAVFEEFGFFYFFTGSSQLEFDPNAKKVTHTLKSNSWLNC

[2] = molecular target: T2, Interstitial collagenase (Homo sapiens) (UniProt P03956); assay: In vitro inhibition of human fibroblast collagenase at a 10 uM.
T2 sequence (whole entry): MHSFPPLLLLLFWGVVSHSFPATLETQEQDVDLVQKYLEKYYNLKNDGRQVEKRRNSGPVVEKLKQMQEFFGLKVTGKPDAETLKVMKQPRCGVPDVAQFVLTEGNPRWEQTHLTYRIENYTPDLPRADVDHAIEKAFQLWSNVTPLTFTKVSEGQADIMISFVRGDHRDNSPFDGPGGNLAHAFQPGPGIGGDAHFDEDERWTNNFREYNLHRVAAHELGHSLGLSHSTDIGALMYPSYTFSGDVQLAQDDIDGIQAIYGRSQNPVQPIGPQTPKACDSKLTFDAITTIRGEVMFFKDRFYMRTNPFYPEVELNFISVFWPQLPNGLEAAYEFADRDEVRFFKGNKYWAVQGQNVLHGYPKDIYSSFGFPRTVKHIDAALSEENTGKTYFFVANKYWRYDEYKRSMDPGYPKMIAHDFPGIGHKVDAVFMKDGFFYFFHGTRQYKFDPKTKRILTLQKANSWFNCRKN

[3] = molecular target: T3, Interstitial collagenase (Homo sapiens, UniProt P03956); assay: In vitro inhibition of human fibroblast collagenase.
T3 sequence (P03956 whole entry): T2 sequence (whole entry)

[4] = molecular target: T1, Stromelysin-1; assay: In vitro inhibition of human recombinant stromelysin-1 at a concentration of 5 uM.
Target sequence in this assay (P08254 100-477 limits assumed): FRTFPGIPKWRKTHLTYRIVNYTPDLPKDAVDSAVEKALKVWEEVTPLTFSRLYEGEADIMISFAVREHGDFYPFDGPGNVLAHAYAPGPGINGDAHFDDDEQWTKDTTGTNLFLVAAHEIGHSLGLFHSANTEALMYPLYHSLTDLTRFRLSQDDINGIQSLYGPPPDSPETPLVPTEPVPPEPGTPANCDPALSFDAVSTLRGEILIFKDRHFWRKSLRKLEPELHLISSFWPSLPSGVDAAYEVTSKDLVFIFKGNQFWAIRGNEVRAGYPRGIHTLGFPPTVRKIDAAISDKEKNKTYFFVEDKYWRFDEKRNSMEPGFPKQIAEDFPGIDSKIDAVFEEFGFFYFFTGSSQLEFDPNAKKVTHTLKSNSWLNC

Row | SMILES | Ki [1] | inhibition [2] | Ki [3] | inhibition [4]
1 | CC(C)C[C@H](NC(=O)C(CCc1ccccc1)CP(=O)(O)CNC(=O)[C@H](Cc1ccccc1)NC(=O)OCc1ccccc1)C(=O)Nc1ccccc1 (stereo partly specified) | 710 nM | 4% | – | –
2 | CC(=O)N[C@@H](C)C(=O)N[C@@H](C)P(=O)(O)CC(CCc1ccccc1)C(=O)N[C@@H](CC(C)C)C(=O)Nc1ccccc1 (stereo partly specified) | 340 nM | 0% | – | –
3 | CC(C)C[C@H](NC(=O)C(CCc1ccccc1)CP(=O)(O)[C@H](C)NCc1ccccc1)C(=O)Nc1ccccc1 (stereo partly specified) | 1900 nM | 7% | – | –
4 | CC(C)C[C@H](NC(=O)C(CCc1ccccc1)CP(=O)(O)CNC(=O)[C@H](CC(N)=O)NC(=O)OCc1ccccc1)C(=O)Nc1ccccc1 (stereo partly specified) | 600 nM | 14% | – | –
5 | CC(=O)N1CCCC1C(=O)N[C@@H](C)C(=O)N[C@@H](C)P(=O)(O)CC(CCc1ccccc1)C(=O)N[C@@H](CC(C)C)C(=O)Nc1ccccc1 (stereo partly specified) | 6.1 nM | – | 2900 nM | –
6 | CC(C)C[C@H](NC(=O)C(CCc1ccccc1)CP(=O)(O)[C@H](C)NC(=O)[C@H](C)NC(=O)C1CCCN1C(=O)c1ccccc1)C(=O)Nc1ccccc1 (stereo partly specified) | 20 nM | – | 5100 nM | –
7 | CC(C)C[C@H](NC(=O)C(CCc1ccccc1)CP(=O)(O)CNCc1ccccc1)C(=O)Nc1ccccc1 (stereo partly specified) | 1900 nM | 0% | – | –
8 | CC(=O)N1CCCC1C(=O)N[C@@H](C)P(=O)(O)CC(CCc1ccccc1)C(=O)N[C@@H](CC(C)C)C(=O)Nc1ccccc1 (stereo partly specified) | – | 0% | – | 57%
9 | CC(C)C[C@H](NC(=O)C(CCc1ccccc1)CP(=O)(O)[C@H](C)NC(=O)OCc1ccccc1)C(=O)Nc1ccccc1 (stereo partly specified) | 330 nM | – | 7500 nM | –
10 | CC(C)C[C@H](NC(=O)C(CCc1ccccc1)CP(=O)(O)CNC(=O)[C@H](CCC(=O)O)NC(=O)OCc1ccccc1)C(=O)Nc1ccccc1 (stereo partly specified) | 370 nM | 12% | – | –

Results, then the compound that gave them:

Row | Ki [1] | inhibition [2] | Ki [3] | inhibition [4] | SMILES
11 | 560 nM | 0% | – | – | CC(C)C[C@H](NC(=O)C(CCc1ccccc1)CP(=O)(O)CNC(=O)[C@H](Cc1ccc(O)cc1)NC(=O)OCc1ccccc1)C(=O)Nc1ccccc1 (stereo partly specified)
12 | 280 nM | – | 15900 nM | – | CC(C)C[C@H](NC(=O)C(CCc1ccccc1)CP(=O)(O)CNC(=O)OCc1ccccc1)C(=O)Nc1ccccc1 (stereo partly specified)
13 | 280 nM | 0% | – | – | CC(C)C[C@H](NC(=O)C(CCc1ccccc1)CP(=O)(O)CNC(=O)[C@H](C)NC(=O)OCc1ccccc1)C(=O)Nc1ccccc1 (stereo partly specified)
14 | 24 nM | 39% | – | – | CC(C)C[C@H](NC(=O)C(CCc1ccccc1)CP(=O)(O)CNC(=O)[C@H](C)NC(=O)C1CCCN1C(=O)c1ccccc1)C(=O)Nc1ccccc1 (stereo partly specified)
15 | 4600 nM | 18% | – | – | CC(C)C[C@H](NC(=O)C(CCc1ccccc1)CP(=O)(O)CNC(=O)[C@H](CCCCN)NC(=O)OCc1ccccc1)C(=O)Nc1ccccc1 (stereo partly specified)
16 | 1400 nM | 4% | – | – | CC(C)C[C@H](NC(=O)C(CCc1ccccc1)CP(=O)(O)CNC(=O)CNC(=O)OCc1ccccc1)C(=O)Nc1ccccc1 (stereo partly specified)
17 | 2400 nM | 0% | – | – | CC(C)C[C@H](NC(=O)C(CCc1ccccc1)CP(=O)(O)[C@H](C)NC(=O)CN1C(=O)c2ccccc2C1=O)C(=O)Nc1ccccc1 (stereo partly specified)
18 | 210 nM | 9% | – | – | CC(C)C[C@H](NC(=O)C(CCc1ccccc1)CP(=O)(O)CNC(=O)[C@H](Cc1c[nH]cn1)NC(=O)OCc1ccccc1)C(=O)Nc1ccccc1 (stereo partly specified)
19 | 15 nM | 60% | – | – | CC(=O)N1CCCC1C(=O)N[C@@H](C)C(=O)NCP(=O)(O)CC(CCc1ccccc1)C(=O)N[C@@H](CC(C)C)C(=O)Nc1ccccc1 (stereo partly specified)
20 | 410 nM | 14% | – | – | CC(C)CC(NC(=O)C(CCc1ccccc1)CP(=O)(O)CNC(=O)CN1C(=O)c2ccccc2C1=O)C(=O)Nc1ccccc1 (stereo unspecified)
21 | 940 nM | 0% | – | – | CC(C)C[C@H](NC(=O)C(CCc1ccccc1)CP(=O)(O)CNC(=O)Cc1ccccc1)C(=O)Nc1ccccc1 (stereo partly specified)
22 | 1300 nM | 0% | – | – | CCCC[C@H](NC(=O)OCc1ccccc1)C(=O)NCP(=O)(O)CC(CCc1ccccc1)C(=O)N[C@@H](CC(C)C)C(=O)Nc1ccccc1 (stereo partly specified)
23 | 42 nM | 32% | – | – | CC(=O)N[C@@H](C)C(=O)N[C@@H](C)C(=O)N[C@@H](C)P(=O)(O)CC(CCc1ccccc1)C(=O)N[C@@H](CC(C)C)C(=O)Nc1ccccc1 (stereo partly specified)

— ChEMBL document CHEMBL1127884, “Inhibition of stromelysin-1 (MMP-3) by peptidyl phosphinic acids” (Bioorg Med Chem Lett, 1994)
